We go through two molecules from patent publication US20220387457A1 (Qlaris Bio, Inc., priority 2020, published 2022).

Molecules are shown by their SMILES. Bounds are passed on as bounds.

Data set [1] deals with human alkaline phosphatase (ALP). Nature of the data set: Conversion of CKLP1 by human alkaline phosphatase, LC/MS-MS, pH 7.4. The class given is biochemical. Conditions: up to 2 hours. Here is the method: (§1) Conversion of CKLP1 (200 μM-5.0 mM) was examined by LC/MS-MS following incubation at pH 7.4 with either human alkaline phosphatase (ALP), acid phosphatase, or 5′-nucleotidase (2.01 nM-1.0 μM) for up to 2 hours.

For data set [2], the system named is acid phosphatase. The experiment in a line: Conversion of CKLP1 by acid phosphatase, LC/MS-MS, pH 7.4. The format is biochemical, human. Conditions: up to 2 hours. Here is the method:
as §1

Data set [3] deals with normotensive hound dogs (IOP). The experiment in a line: Dose response of CKLP1 on IOP in hound dogs. The class given is in vivo, hound dog. Conditions: for IOP lowering: 5 consecutive days, vs baseline. The protocol:
In order to determine the optimal topical ocular dose of CKLP1 for subsequent pharmacokinetic studies, hound dogs (n=3) were treated with four different concentrations of CKLP1 (5 mM, 10 mM, 15 mM and 20 mM) once daily for 5 consecutive days. […] No difference in IOP reduction was noted between the 10 and 15 mM doses (p=0.57). To utilize the lowest dose concentration with effective IOP reduction, a 50 μL topical ocular administration of 10 mM CKLP1 was selected as the optimal dose for all subsequent experiments.
IOP was measured three times each day at times that corresponded to 1 hour, 4 hours and 23 hours post treatment. The average of the measurements at three time points on any given day was recorded as the daily IOP.
For the dose response study, baseline IOP measurements were obtained and recorded (three consecutive days prior to treatment). One eye of each dog was treated with a 50 μL topical ocular administration of 5 mM CKLP1 and the contralateral eye was treated with 10 mM CKLP1 once daily for 5 consecutive days. After 5 days, the eyes that received 5 mM CKLP1 was treated with 15 mM CKLP1 while the eye with 10 mM CKLP1 received 20 mM CKLP1. IOPs were measured every day at times corresponding to 1, 4, and 23 hours post treatment. For all experiments, the right eye was used as control while the left eye was selected as the treatment eye.

Data set [4] deals with normotensive hound dogs (IOP). The experiment in a line: Extended-dose (61 days) study of CKLP1 on IOP in hound dogs. The format is in vivo, hound dog. The protocol: To evaluate the effect of IOP lowering long-term, hound dogs (n=5) were treated with 10 mM CKLP1 in one eye and vehicle (PBS) in the contralateral eye once daily for 61 consecutive days. […] On average, IOP was reduced by 18.9±1.3% (reduction of 3.0±0.5 mmHg; p<0.001) in all five hound dogs over the entire treatment period. Additionally, no significant change in systolic (baseline, 141.0±6.7; treatment, 138.9±9.5; p=0.56) or diastolic (baseline, 80.1±8.9; treatment, 78.1±5.9; p=0.76) blood pressure was observed during the treatment period (FIG. 7B). Hound dogs were also evaluated for eye redness, swelling of the eye or eyelids, unusual discharge from eye and overall food intake.
For the extended dose study, baseline IOPs were measured three times daily for 5 consecutive days. The average of the three measurements was recorded as the daily IOP and averaged over the 5 days for the final pre-treatment value. Following baseline IOP measurements, dogs (n=5) were treated with 10 mM CKLP1 in one eye, while the contralateral eye received vehicle (PBS). IOP was measured at least three times every week at times corresponding to 1, 4, and 23 hours post treatment. Blood pressure was measured three times each week at the 4 hour post treatment time point.

Data set [5] can be described thus: Toxicity and clinical signs after escalating intravenous doses of CKLP1 in beagles. The class given is in vivo, beagle dog. The note with it: both sexes, beagle, dog, in vivo. The protocol:
Two beagles (one male and one female) were intravenously injected with escalating doses of CKPL1 (0.05 mg/kg, 0.5 mg/kg, 1.5 mg/kg, 3 mg/kg, and 5 mg/kg) to assess the toxicity of CKLP1. The injection was done through the cephalic vein and CKLP1 was administered in a phosphate buffered saline solution ((0.096% sodium phosphate dibasic, 0.089% sodium dihydrogen orthophosphate monohydrate, 0.83% sodium chloride) pH 6.5±0.1 in sterile water for injection USP). The dosing schedule is shown below in Table 3.
The following parameters and endpoints were evaluated: mortality, clinical observations, body and organ weights, and food consumption. Bioanalytical samples for toxicokinetic parameters (for both CKLP1 and leveromakalim) were collected after each dose level (days 1, 3, 8, 10, and 14) at predose, 1, 3, 6, 8, and 24 hours postdose. Animals were released from the study after completion of the bioanalytical sample collection schedule.

In data set [6] the test system is rats. Nature of the data set: 28-day intravenous administration of CKLP1 in rats. The format is in vivo, rat. The source says: Three groups of rats were intravenously administered different doses of CKLP1. The study was 28 days long with a 14-day recovery period.
Data set [7] deals with Dutch-belted pigmented rabbits (IOP). Conditions: previously reported; cited from earlier work.
In data set [8] the test system is hound dogs. Nature of the data set: Histology, blood chemistry and tolerability after bilateral topical CKLP1 in hound dogs.
From the text: To evaluate local and systemic side effects of bilateral topical administration of CKLP1 to the eyes, additional tissue samples were harvested for histological examination. Tissues collected and fixed during necropsy were processed into paraffin blocks, sectioned, and stained with hematoxylin and eosin.
In data set [9] the test system is 3D-glaucomatous human trabecular meshwork/Schlemm's canal tissue model. Nature of the data set: Outflow facility by perfusion in 3D-glaucomatous human trabecular meshwork/Schlemm's canal constructs. The format is cell-based. Conditions: levcromakalim 1 μM, TGF-β2 treated constructs, 4 donors, vs TGF-β2 (P<0.0001) or Y-27632 (P<0.05). The protocol: (§2) Bioengineered 3D conventional outflow tract constructs using 4 donors (ages 47-91) were treated with […] (5 ng/mL) for 6 days. […] Protein expression of α-smooth muscle actin (α-SMA), CD31, endothelin-I, fibronectin, VE-cadherin, phospho-eNOS and total eNOS was analyzed via western blot. Cellular expression of α-SMA, fibronectin, phospho-eNOS and total eNOS was determined by immunocytochemistry and confocal microscopy. Statistical significance was determined by one-way ANOVA with a Tukey's multiple comparisons test, or by two-way ANOVA.

Data set [10] has as its system α-SMA, CD31, endothelin-I, fibronectin, VE-cadherin, phospho-eNOS and total eNOS. Nature of the data set: Protein expression (western blot, immunocytochemistry) in 3D HTM/SC constructs. The class given is cell-based, human. The note with it: levcromakalim 1, 10 or 100 μM; Y-27632 10 μM. Here is the method:
as §2

The mark [11] stands for this setting: 10 mM CKLP1 once daily, 61 days, vs vehicle eye.

Take `CC1(C)Oc2ccc(C#N)cc2[C@@H](N2CCCC2=O)[C@@H]1OP(=O)(O)O` [CKLP1]: the “rate constant for catalytic conversion (kcat)” value in data set [1] (CKLP1 200 μM-5.0 mM) came to 0.25 s⁻¹. The Km in [1] (CKLP1 200 μM-5.0 mM, read-out: Michaelis constant (Km)) came to 630 µM. The “conversion of CKLP1 to levcromakalim” value in [1] (human ALP) is “converted”; in data set [2], “not”. The “IOP lowering, all concentrations” value in data set [3] (5 mM, 10 mM, 15 mM and 20 mM, p≤0.01) is “significant IOP lowering”. Also, the IOP lowering in data set [3] (10 mM CKLP1 topical once daily) was 2.3±0.5 mmHg; in data set [3] (15 mM CKLP1 topical once daily), 2.5±0.4 mmHg. For the same molecule, in [4] (10 mM CKLP1 once daily, 61 consecutive days), the “average IOP in treated eye” value is reported as 12.9±2.0 mmHg. For the same molecule, the “eye redness, swelling of the eye or eyelids, unusual discharge from eye, food intake” value in [4] (10 mM CKLP1 once daily, 61 days) is recorded as “No notable findings”. The “IOP reduced by” value in data set [4] (setting [11]) turned out to be 18.9±1.3%. Besides, the IOP reduction in data set [4] (setting [11]) is recorded as 3.0±0.5 mmHg. The “return of IOP to baseline after CKLP1 administration” value in data set [4] (dogs (FIG. 7A), same effect in African green monkeys (FIG. 8A)) is recorded as “greater than 24 hours”. In data set [4] (hound dogs), the “IOP lowered by (summary)” value is “approximately 19%”. In data set [5] (iv, read-out: no-observed adverse effect level (NOAEL)), the no observed adverse effect level (NOAEL) was found to be 3 mg/kg. In addition, the maximum tolerated dose (MTD) in data set [5] (single escalating IV doses, read-out: maximum tolerated dose (MTD)) came to 3 mg/kg. Also, the “food consumption, body weight, body weight gains vs control” value in [6] (IV 0.15, 1.5, 15 mg/kg/day, 28 days) is on record as “no difference”. Besides, the “Clinical Signs” value in data set [6] (IV CKLP1 0.15 mg/kg/day) is “Red skin forelimbs and hindlimbs; red pinnae; red”; in [6] (IV CKLP1 1.5 mg/kg/day), “Red skin forelimbs and hindlimbs; red skin”; in data set [6] (IV CKLP1 15 mg/kg/day), “Red skin forelimbs and hindlimbs; red skin”. Moreover, in data set [6] (following intravenous administration in rats), the peripheral vasodilation entry was “induces peripheral vasodilation”. For the same molecule, the “dose with red skin forelimbs and hindlimbs, red pinnae, red scrotums” value in data set [6] (male and female rats, IV) is recorded as at least 0.15 mg/kg/day. For the same molecule, the “dose with red skin forepaws” value in [6] (males and females, IV) is at least 1.5 mg/kg/day. Moreover, in [6] (males, 15 mg/kg), the eye color result is given as “Abnormal eye color”. The “IOP lowered by” value in data set [7] is on record as about 16%. Besides, in data set [8] (bilateral eye treatment with CKLP1), the “overall tolerability, ocular or systemic toxicity” value was “well tolerated and did not result in any observed ocular or systemic toxicity”. The “histology of 40 different tissues” value in [8] (bilateral topical 10 mM CKLP1, 12-13 days) was “none of the analyzed tissues showed any significant pathology”. The blood chemistry result in data set [8] (bilateral topical 10 mM CKLP1, except albumin, slightly lower in treated and control) was “within normal range”.

Consider `CC1(C)Oc2ccc(C#N)cc2[C@@H](N2CCCC2=O)[C@@H]1O` [Levcromakalim, levcromakalim, reference compound], for which the “outflow facility (hydraulic conductivity)” value was “significantly improved outflow facility” in [9] and “significantly increased outflow facility” in data set [9] (listed as Leveromakalim). Besides, in data set [10], the “expression of the cell adhesion proteins CD31 and VE-Cadherin” value is “did not significantly affect”.

In general, Km refers to the substrate concentration at which the rate is half of its maximum. The NOAEL is the highest tested level that showed no adverse finding. Usually MTD stands for the largest dose that counted as tolerated.
